Test results: patent US20060251597A1, “ANTI-ODOR COMPOSITIONS AND THERAPEUTIC USE” (priority 2005, published 2006)
Counter-ions that a name gives are not always drawn.

Experiment: anti-odor test, three-member panel by sniffing: sulfone or organic amine in composition containing water or alcohol (solution, oil-in-water emulsion)
Settings: not given
Experimental: (§1) Initially, a malodor compound such as about 5% by weight was prepared in water solution or in oil-in-water emulsion. A sulfone or organic amine of the present embodiments was added at various concentrations for example, ranging from about 2%, 1%, 0.5% and 0.1% to the formulations containing the malodor substance. The composition containing the malodor substance without a sulfone or organic amine was used as the control.
Methenamine (MW 140) 7.0 g was dissolved in water, and the total volume was 100 ml. This solution contained methenamine 0.5M or 70 mg per ml methenamine.
Piperazine (MW 86) 4.3 g was dissolved in water, and the total volume was 100 ml. This solution contained piperazine 0.5M, or 43 mg per ml piperazine.

| Compound | malodor as judged by panel |
| --- | --- |
| O=S(=O)(CCO)CCO [2,2-sulfonyldiethanol] | did not have any malodor |
| O=S(=O)(c1ccc(O)cc1)c1ccc(O)cc1 [4,4′-sulfonyldiphenol] | did not have any malodor |

Same assay, conditions: 10% N-acetyl-L-cysteine and 5% anti-odor ingredient in water

| Compound | malodor as judged by panel |
| --- | --- |
| Cc1cc(S(=O)(=O)c2ccc(O)c(C)c2)ccc1O [4,4′-sulfonyl-bis(2-methylphenol)] | did not have any malodor |
| COC(=O)c1ccc(S(=O)(=O)c2ccc(C(=O)OC)cc2)cc1 [4,4′-sulfonyl-bis(methylbenzoate)] | did not have any malodor |
| CS(C)(=O)=O [dimethyl sulfone] | did not have any malodor |
| O=S(=O)(c1ccccc1)c1ccccc1 [diphenylsulfone] | did not have any malodor |
| CCOC(=O)CC(C)=O [ethyl acetoacetate] | did not have any malodor |

Same assay, conditions: 10% N-acetyl-L-cysteine and 10% dimethyl sulfone in ethanol

| Compound | malodor as judged by panel |
| --- | --- |
| CS(C)(=O)=O [dimethyl sulfone] | very strong malodor |

Same assay, conditions: 10% N-acetyl-L-cysteine and 10% sulfone in water

| Compound | malodor as judged by panel |
| --- | --- |
| CS(C)(=O)=O [dimethyl sulfone] | did not have any malodor |

Same assay, conditions: N-acetyl-L-cysteine 2% in oil-in-water emulsion

| Compound | concentration that can completely eliminate the malodor [%] |
| --- | --- |
| C1N2CN3CN1CN(C2)C3 [methenamine, reference compound] | ≥ 0.1 |

Same assay, conditions: cream (oil-in-water emulsion), 10% N-acetyl-L-cysteine and 3% methenamine

| Compound | malodor as judged by panel |
| --- | --- |
| C1N2CN3CN1CN(C2)C3 [methenamine, reference compound] | did not have any malodor |

Same assay, conditions: cream (oil-in-water emulsion), 10% N-acetyl-L-cysteine, no anti-odor ingredient (control)

| Compound | malodor as judged by panel |
| --- | --- |
| CC(=O)N[C@@H](CS)C(=O)O [N-Acetyl-L-cysteine, reference compound] | very unpleasant malodor |

Same assay, conditions: water, 4% N-acetyl-L-cysteine and 1% organic amine (cytidine solution pH 4.3)

| Compound | effective in preventing malodor [%] | malodor as judged by panel |
| --- | --- | --- |
| Nc1ncnc2nc[nH]c12 [adenine] | 50 | slight malodor ((b) slight malodor (50% effective)) |
| Nc1cc[nH]c(=O)n1 [cytosine] | 50 | slight malodor ((b) slight malodor (50% effective)) |
| Nc1nc2nc[nH]c2c(=O)[nH]1 [guanine] | 50 | slight malodor ((b) slight malodor (50% effective)) |
| Nc1nc2c(ncn2[C@@H]2O[C@H](CO)[C@@H](O)[C@H]2O)c(=O)[nH]1 [guanosine] | 50 | slight malodor ((b) slight malodor (50% effective)) |

Same assay, conditions: water, N-acetyl-L-cysteine 0.25 M and chlorhexidine 0.1 M

| Compound | effective in preventing odor [%] | malodor as judged by panel |
| --- | --- | --- |
| [H]/N=C(\N/C(=N/[H])NCCCCCCNC(=N)NC(=N)Nc1ccc(Cl)cc1)Nc1ccc(Cl)cc1 [chlorhexidine base, chlorhexidine, reference compound] | 50 | slight malodor ((b) slight malodor (50% effective)) |

Same assay, conditions: water, N-acetyl-L-cysteine 4% and methenamine 0.7%, pH 3.9

| Compound | malodor as judged by panel |
| --- | --- |
| C1N2CN3CN1CN(C2)C3 [methenamine, reference compound] | did not have any malodor |

Same assay, conditions: water, N-acetyl-L-cysteine 4% and methenamine 1.8%, pH 5.2

| Compound | malodor as judged by panel |
| --- | --- |
| C1N2CN3CN1CN(C2)C3 [methenamine, reference compound] | did not have any malodor |

Same assay, conditions: water, N-acetyl-L-cysteine 4% and piperazine 0.43%, pH 3.4

| Compound | effective in preventing odor [%] | malodor as judged by panel |
| --- | --- | --- |
| C1CNCCN1 [piperazine, reference compound] | 50 | slight malodor ((b) slight malodor (50% effective)) |

Same assay, conditions: water, N-acetyl-L-cysteine 4% and piperazine 1.1%, pH 5.6

| Compound | effective in preventing odor [%] | malodor as judged by panel |
| --- | --- | --- |
| C1CNCCN1 [piperazine, reference compound] | 50 | slight malodor ((b) slight malodor (50% effective)) |

Same assay, conditions: water, N-acetyl-L-cysteine 4% and trizma base 0.61%, pH 3.0

| Compound | effective in preventing odor [%] | malodor as judged by panel |
| --- | --- | --- |
| tris(hydroxymethyl)aminomethane [trizma base] | 50 | slight malodor ((b) slight malodor (50% effective)) |

Same assay, conditions: water, N-acetyl-L-cysteine 4% and trizma base 1.5%, pH 3.5

| Compound | effective in preventing odor [%] | malodor as judged by panel |
| --- | --- | --- |
| tris(hydroxymethyl)aminomethane [trizma base] | 50 | slight malodor ((b) slight malodor (50% effective)) |

Experiment: panel sniff tests of solvents, ingredients and amines against thiol malodor (general statements)
Settings: solvent or ingredient, based on the panel tests
Experimental: as §1

| Compound | prevention of malodor produced by a thiol or similar malodor compounds |
| --- | --- |
| CCCC(O)C(CC)CO (stereo not shown) [2-ethyl-1,3-hexanediol] | effectively prevent malodor |
| CCCCO [N-butyl alcohol] | effectively prevent malodor |
| CC(=O)N1CCC[C@H]1C(=O)OCc1ccccc1 [benzyl N-acetyl-prolinate] | effectively prevent malodor |
| CCCCOCCOCCO [butoxydiglycol] | effectively prevent malodor |
| CCCCOCC(C)O (stereo not shown) [butoxypropanol] | effectively prevent malodor |
| CCCCOC(C)=O [butyl acetate] | effectively prevent malodor |
| CCCCOC(=O)C(C)O (stereo not shown) [butyl lactate] | effectively prevent malodor |
| CCCCCCC(CO)CCCC (stereo not shown) [butyloctanol] | effectively prevent malodor |
| C1CCCCC1 [cyclohexane] | effectively prevent malodor |
| CCCCOC(=O)CCCCC(=O)OCCCC [dibutyl adipate] | effectively prevent malodor |
| CC(C)COC(=O)CCCCC(=O)OCC(C)C [diisobutyl adipate] | effectively prevent malodor |
| CC(C)OC(=O)CCCCC(=O)OC(C)C [diisopropyl adipate] | effectively prevent malodor |
| CC(C)OC(=O)C(=O)OC(C)C [diisopropyl oxalate] | effectively prevent malodor |
| CC(C)OC(=O)CCCCCCCCC(=O)OC(C)C [diisopropyl sebacate] | effectively prevent malodor |
| COCCOCCOC [dimethoxydiglycol] | effectively prevent malodor |
| COC(=O)CCCCC(=O)OC [dimethyl adipate] | effectively prevent malodor |
| CS(C)(=O)=O [dimethyl sulfone] | effectively prevent malodor |
| CCCCCCCCOC(=O)CCCCC(=O)OCCCCCCCC [dioctyl adipate] | effectively prevent malodor |

| Compound | prevention of malodor produced by a thiol or similar malodor compounds |
| --- | --- |
| CCCCCCCCOC(=O)CCCCCCCCC(=O)OCCCCCCCC [dioctyl sebacate] | effectively prevent malodor |
| CCCOC(=O)CCCCC(=O)OCCC [dipropyl adipate] | effectively prevent malodor |
| CCOCCO [ethoxyethanol] | effectively prevent malodor |
| CCOC(=O)CC(C)=O [ethyl acetoacetate] | effectively prevent malodor |
| CCOC(=O)C(C)O (stereo not shown) [ethyl lactate] | effectively prevent malodor |
| CC(C)CC(C)(C)C [isooctane] | effectively prevent malodor |
| CC(=O)N1CCC[C@H]1C(=O)OC(C)C [isopropyl N-acetyl-prolinate] | effectively prevent malodor |
| CC(=O)OC(C)C [isopropyl acetate] | effectively prevent malodor |
| CCCCCCCCCCCCCC(=O)OC(C)C [isopropyl myristate] | effectively prevent malodor |
| CCCCCCCCCCCCCCCCCC [octadecane] | effectively prevent malodor |
| CCCCCCCCO [octanol] | effectively prevent malodor |
| CCCCCCCCOC(=O)c1ccccc1 [octyl benzoate] | effectively prevent malodor |
| CCCCCCCC/C=C\CCCCCCCCO [oleyl alcohol] | effectively prevent malodor |
| CCCCCCCC/C=C\CCCCCCCCOC(=O)C(C)O (stereo not shown) [oleyl lactate] | effectively prevent malodor |
| CC(C)OC(=O)CC(O)(CC(=O)OC(C)C)C(=O)OC(C)C [triisopropyl citrate] | effectively prevent malodor |
| cycloethoxymethicone | effectively prevent malodor |
| cyclomethicone | effectively prevent malodor |

Experiment: anti-odor test, panel by sniffing: N-acetyl-L-cysteine dissolved in a single solvent or liquid ingredient (anhydrous composition)
Settings: 10% N-acetyl-L-cysteine and 90% solvent
Experimental: An anti-odor test was carried out in an anhydrous solvent according to the following example. In a series of test tubes, 4.5 ml of a solvent was added to a test tube such that each test tube comprised a single solvent. The solvents added to the test tubes included water, ethanol, acetone, n-propanol, isopropyl alcohol, propylene glycol, butylenes glycol, benzyl alcohol, ethoxydiglycol, 2-ethyl-1,3-hexanediol. N-Acetyl-L-cysteine (MW 163) 0.5 g was then added and dissolved in each solvent. The test tubes were warmed slightly to enhance dissolution of N-acetyl-L-cysteine crystals. Each test tube contained 10% N-acetyl-L-cysteine and 90% solvent.
An anti-odor test was carried out in an anhydrous composition according to the following example. In a series of test tubes, 4.5 ml of a liquid ingredient was added to a test tube such that each test tube comprised a single liquid ingredient. The liquid ingredients added to a test tube included ethyl glycolate, ethyl-L-lactate, diethyl tartrate, triethyl citrate, tripropyl citrate, ethyl-DL-mandelate, benzyl N-acetyl-prolinate, ethyl N-acetyl-prolinate, propyl N-acetyl-prolinate. N-Acetyl-L-cysteine (MW 163) 0.5 g was then added and dissolved in each liquid ingredient. The test tubes were warmed slightly to enhance dissolution of N-acetyl-L-cysteine crystals. Each test tube contained 10% N-acetyl-L-cysteine and 90% liquid ingredient. The panel judged the anti-odor effect in each test tube.

| Compound | suppression of the malodor, judged by panel |
| --- | --- |
| CCO [ethanol] | did not suppress the malodor |
| CC(O)CO (stereo not shown) [propylene glycol] | did not suppress the malodor |
| O [water] | did not suppress the malodor |

Same assay, conditions: 10% N-acetyl-L-cysteine and 90% solvent or liquid ingredient

| Compound | anti-odor effect [%] |
| --- | --- |
| CCOC(=O)C(O)c1ccccc1 (racemic) [ethyl-DL-mandelate] | 100 |
| CCCC(O)C(CC)CO (stereo not shown) [2-ethyl-1,3-hexanediol] | 100 |
| CC(C)=O [acetone] | 100 |
| CC(=O)N1CCC[C@H]1C(=O)OCc1ccccc1 [benzyl N-acetyl-prolinate] | 100 |
| OCc1ccccc1 [benzyl alcohol] | 100 |
| CCOC(=O)[C@H](C)O [ethyl-L-lactate] | 100 |
